According to patent publication US20230128688A1, “DIRECTED CONJUGATION TECHNOLOGIES” (KLEO PHARMACEUTICALS, INC., priority 2019, published 2023):
Non-standard residues stand in square brackets, D forms with d. Residues, ends and D or L forms follow the SMILES beside them. *: point of attachment. FITC = O=C1OC2(c3ccc(O)cc3Oc3cc(O)ccc32)c2ccc(NC(=S)*)cc21; PEG8 = NCCOCCOCCOCCOCCOCCOCCOCCOCCC(=O)O; PEG6 = NCCOCCOCCOCCOCCOCCOCCC(=O)O; PEG2 = NCCOCCOCCC(=O)O; X7 = Fc1ccc(O*)cc1

Test system: daratumumab
Assay: Absorbance based DAR analysis of FITC conjugation to antibody
Type: biochemical
Protocol: In some embodiments, reaction partners, e.g., compounds of formula R-I or salts thereof ere dissolved in DMSO to 5 mM stock solution.
In some embodiments, reactions are set up with 300 micrograms of antibody. In some embodiments, various conditions, including various buffers, reagent equivalents, reaction time, reaction temperature and reaction concentrations can be utilized.
As an example, one reaction is 300 microliter reaction with 1 mg/mL of antibody in PBS. Peptide I-45 (1 microliter of 5 mM stock in DMSO, 2.5 molar equivalents relative to daratumumab) was diluted in 284 microliters of PBS buffer (10 mM phosphate, 150 mM sodium chloride, pH 7.4), then 15 microliters of daratumumab (20 mg/mL stock) was added to the reaction mixture followed by incubation at room temperature in the dark. After 4 h reaction buffer was exchanged using Amicon Ultra centrifuge filter (30 KDa MWCO, 0.5 mL volume). First, glycine buffer (100 mM, pH 2.1) was used for buffer exchange to ensure dissociation of target binding moieties after reaction. Then, phosphate buffer saline (pH 7.4) was used for further buffer exchange and storage.
In another example, a reaction is 300 microliter reaction with 1 mg/mL of antibody in borate buffer. Peptide I-44 (1.2 microliter of 5 mM stock in DMSO, 3.0 molar equivalents relative to daratumumab) was diluted in 284 microliters of Borate buffer (100 mM borate, pH 8.3), then 15 microliters of daratumumab (20 mg/mL stock) was added to the reaction mixture followed by incubation at room temperature in the dark. After 20 h reaction buffer was exchanged using Amicon Ultra centrifuge filter (30 KDa MWCO, 0.5 mL volume). First, glycine buffer (100 mM, pH 2.1) was used for buffer exchange to ensure dissociation of target binding moieties after reaction. Then, phosphate buffer saline (10 mM phosphate, 150 mM sodium chloride, pH 7.4) was used for further buffer exchange and storage.
In some embodiments, a useful technology is absorbance based DAR analysis. DAR (ratio of moieties of interest and target agent moieties (e.g., antibody agent moieties) was calculated for various antibody conjugates, e.g., in various reagent screening/assessment methods. Various agents comprising target binding moieties were assessed for conjugation efficiency as reaction partners with targets, e.g. protein agents such as antibody agents, compared to reagents with the same reactive groups but without target binding moieties. In various ratio determination ‘Drug’/moiety of interest is fluorescein isothiocyanate (FITC) dye conjugated to target agents, e.g., antibody agents. DAR molar ratio is defined as a ratio of moles of drug/moiety of interest to moles of target agent/antibody. Molarity is calculated from absorbance of FITC (A485) and antibody (A280) of conjugated product, and extinction coefficients of FITC and antibody using Beer-Lambert law. Correction coefficient 0.35 was used to correct for absorbance of FITC at 280 nm. Biotek Synergy H1 microplate reader and Take3 microvolume plate were used for absorbance measurements. Concentration of antibody was at least 3 mg/mL for optimal signal-to-noise in the readings. Certain target binding moieties that can provide higher DAR compared to equivalent controls (absence of target binding moieties) were selected as hits for further analysis. Certain assessment data were provided below as examples.

[1] = 10 M eq reagent, Bicarbonate buffer pH 8.3, 2 h, 37 C, Drug = FITC
[2] = 2.5 M eq reagent, phosphate buffer saline pH 7.4, 4 h, 25 C, Drug = FITC
[3] = 30 M eq reagent, borate buffer pH 8.3, 20 h, 37 C, Drug = FITC
[4] = 5 M eq reagent, bicarbonate buffer pH 8.3, 20 h, 37 C, Drug = FITC
[5] = 10 M eq reagent, Bicarbonate buffer pH 8.3, 20 h, 25 C, Drug = FITC
[6] = 5 M eq reagent, phosphate buffer saline pH 7.4, 4 h, 25 C, Drug = FITC

## COc1ccc(NC(=O)c2cn3ccsc3n2)cc1C(=O)NCCCC(=O)NCc1cc(F)c(OC(=O)CCOCCOCCOCCOCCOCCOCCNC(=S)Nc2ccc3c(c2)C(=O)OC32c3ccc(O)cc3Oc3cc(O)ccc32)c(F)c1 [Compound I-1]
[1]
  DAR: 1.00

## CCCCNc1nc(NCCOCCOCCC(=O)NCc2cc(F)c(OC(=O)CCOCCOCCOCCOCCOCCOCCNC(=S)Nc3ccc4c(c3)C(=O)OC43c4ccc(O)cc4Oc4cc(O)ccc43)c(F)c2)nc(NCc2cccc(F)c2)n1 [Compound I-2]
[1]
  DAR: 1.76

## Cc1nc2cc(C(=O)Nc3nc(-c4ccccn4)cs3)ccc2n1CCCC(=O)NCc1cc(F)c(OC(=O)CCOCCOCCOCCOCCOCCOCCNC(=S)Nc2ccc3c(c2)C(=O)OC32c3ccc(O)cc3Oc3cc(O)ccc32)c(F)c1 [Compound I-3]
[1]
  DAR: 1.39

## CC(=O)NCc1ccc(OC(=O)CCOCCOCCOCCOCCOCCOCCNC(=S)Nc2ccc3c(c2)C(=O)OC32c3ccc(O)cc3Oc3cc(O)ccc32)c(F)c1 [Compound I-10]
[2]
  DAR: 0.08
2.5 M eq, 25 C, 4 h, PBS pH 7.4
  DAR: 0.08
2.5 M eq, 25 C, 20 h, Borate pH 8.2
  DAR: 0.21
2.5 M eq, 25 C, 20 h, PBS pH 7.4
  DAR: 0.07
2.5 M eq, 25 C, 20 h, PBS pH 7.8
  DAR: 0.15
2.5 M eq, 25 C, 20 h, PBS pH 8.0
  DAR: 0.06
2.5 M eq, 25 C, 20 h, PBS pH 8.2
  DAR: 0.03
2.5 M eq, 30 C, 20 h, PBS pH 7.4
  DAR: 0.05
2.5 M eq, 37 C, 20 h, PBS pH 7.4
  DAR: 0.17
[1]
  DAR: 0.14
[3]
  DAR: 0.98

## CC(=O)NCc1ccc(OC(=O)CCOCCOCCOCCOCCOCCOCCNC(=S)Nc2ccc3c(c2)C(=O)OC32c3ccc(O)cc3Oc3cc(O)ccc32)cc1 [Compound I-11]
[2]
  DAR: 0.05
[1]
  DAR: 0.14
[3]
  DAR: 0.14

## Cc1nc2cc(C(=O)Nc3nc(-c4ccccn4)cs3)ccc2n1CCCC(=O)NCc1ccc(OC(=O)CCOCCOCCOCCOCCOCCOCCNC(=O)Nc2ccc3c(c2)C(=O)OC32c3ccc(O)cc3Oc3cc(O)ccc32)c(F)c1 [Compound I-12]
[4]
  DAR: 1.44

## Cc1nc2cc(C(=O)Nc3nc(-c4ccccn4)cs3)ccc2n1CCCC(=O)NCc1ccc(OC(=O)CCOCCOCCOCCOCCOCCOCCNC(=S)Nc2ccc3c(c2)C(=O)OC32c3ccc(O)cc3Oc3cc(O)ccc32)cc1 [Compound I-13]
[4]
  DAR: 0.09

## CCCCNc1nc(NCCOCCOCCC(=O)NCc2ccc(OC(=O)CCOCCOCCOCCOCCOCCOCCNC(=S)Nc3ccc4c(c3)C(=O)OC43c4ccc(O)cc4Oc4cc(O)ccc43)c(F)c2)nc(NCc2cccc(F)c2)n1 [Compound I-14]
[1]
  DAR: 0.29

## CCCCNc1nc(NCCOCCOCCC(=O)NCc2ccc(OC(=O)CCOCCOCCOCCOCCOCCOCCNC(=S)Nc3ccc4c(c3)C(=O)OC43c4ccc(O)cc4Oc4cc(O)ccc43)cc2)nc(NCc2cccc(F)c2)n1 [Compound I-15]
[1]
  DAR: 0.74

## O=C(CCCc1c[nH]c2ccccc12)NCc1cc(F)c(OC(=O)CCOCCOCCOCCOCCOCCOCCNC(=S)Nc2ccc3c(c2)C(=O)OC32c3ccc(O)cc3Oc3cc(O)ccc32)c(F)c1 [Compound I-16]
[4]
  DAR: 0.30

## O=C(CCCc1c[nH]c2ccccc12)NCc1ccc(OC(=O)CCOCCOCCOCCOCCOCCOCCNC(=S)Nc2ccc3c(c2)C(=O)OC32c3ccc(O)cc3Oc3cc(O)ccc32)c(F)c1 [Compound I-17]
[4]
  DAR: 0.37

## CCNC(=O)c1ccc(OC(=O)CCOCCOCCOCCOCCOCCOCCNC(=S)Nc2ccc3c(c2)C(=O)OC32c3ccc(O)cc3Oc3cc(O)ccc32)cc1 [Compound I-19]
[2]
  DAR: 0.20

## COc1ccc(NC(=O)c2cn3ccsc3n2)cc1C(=O)NCCCC(=O)N[C@@H](CCC(=O)N(C)OC)C(=O)NCCOCCOCCOCCOCCOCCOCCOCCOCCN(CCCS(=O)(=O)O)C(=O)OC[C@H]1[C@@H]2CCc3c(nnn3CCOCCOCCOCCOCCNC(=S)Nc3ccc4c(c3)C(=O)OC43c4ccc(O)cc4Oc4cc(O)ccc43)CC[C@@H]21 [Compound I-20]
[5]
  DAR: 0.72

## N=C(N)NCCC[C@H](NC(=O)CCOCCOCCOCCOCCOCCOCCOCCOCCNC(=O)c1ccc(OC(=O)CCOCCOCCOCCOCCOCCOCCNC(=S)Nc2ccc3c(c2)C(=O)OC32c3ccc(O)cc3Oc3cc(O)ccc32)cc1)C(=O)N[C@@H](CCCNC(=N)N)C(=O)NCC(=O)N[C@@H](Cc1c[nH]c2ccccc12)C(=O)O [Compound I-21]
[5]
  DAR: 0.18

## N=C(N)NCCC[C@H](NC(=O)CCOCCOCCOCCOCCNC(=O)c1ccc(OC(=O)CCOCCOCCOCCOCCOCCOCCNC(=S)Nc2ccc3c(c2)C(=O)OC32c3ccc(O)cc3Oc3cc(O)ccc32)cc1)C(=O)N[C@@H](CCCNC(=N)N)C(=O)NCC(=O)N[C@@H](Cc1c[nH]c2ccccc12)C(=O)O [Compound I-22]
[5]
  DAR: −0.18

## N=C(N)NCCC[C@H](NC(=O)CCOCCOCCNC(=O)c1ccc(OC(=O)CCOCCOCCOCCOCCOCCOCCNC(=S)Nc2ccc3c(c2)C(=O)OC32c3ccc(O)cc3Oc3cc(O)ccc32)cc1)C(=O)N[C@@H](CCCNC(=N)N)C(=O)NCC(=O)N[C@@H](Cc1c[nH]c2ccccc12)C(=O)O [Compound I-23]
[5]
  DAR: 0.14

## CC(=O)N[C@@H](CC(=O)O)C(=O)N[C@H]1CSSC[C@@H](C(=O)N[C@H](C(=O)O)[C@@H](C)O)NC(=O)[C@H](Cc2c[nH]c3ccccc23)NC(=O)[C@H](C(C)C)NC(=O)[C@H](CC(C)C)NC(=O)[C@H](CCC(=O)O)NC(=O)CNC(=O)[C@H](CCC(=O)Nc2cc(OC(=O)CCOCCOCCOCCOCCOCCOCCOCCOCCNC(=S)Nc3ccc4c(c3)C(=O)OC43c4ccc(O)cc4Oc4cc(O)ccc43)ccc2F)NC(=O)[C@H](Cc2c[nH]cn2)NC(=O)[C@H](Cc2c[nH]c3ccccc23)NC(=O)[C@H](C)NC1=O [Compound I-24]
[6]
  DAR: 0.05
[3]
  DAR: 0.83

## CC(C)C[C@@H]1NC(=O)[C@H](Cc2cnc[nH]2)NC(=O)[C@H](Cc2c[nH]c3ccccc23)NC(=O)[C@H](C)NC(=O)[C@@H](NC(=O)[C@@H](N)CC(=O)O)CSSC[C@@H](C(=O)N[C@H](C(=O)O)[C@@H](C)O)NC(=O)[C@H](Cc2c[nH]c3ccccc23)NC(=O)[C@H](C(C)C)NC(=O)[C@H](CC(C)C)NC(=O)[C@H](CCC(=O)Nc2cc(OC(=O)CCOCCOCCOCCOCCOCCOCCOCCOCCNC(=S)Nc3ccc4c(c3)C(=O)OC43c4ccc(O)cc4Oc4cc(O)ccc43)ccc2F)NC(=O)CNC1=O [Compound I-25]
[6]
  DAR: 0.10
[3]
  DAR: 1.25

## N=C(N)NCCC[C@H](NC(=O)CCOCCOCCNC(=O)[C@@H](CCC(=O)Oc1ccc(F)cc1)NC(=O)CCOCCOCCOCCOCCOCCOCCNC(=S)Nc1ccc2c(c1)C(=O)OC21c2ccc(O)cc2Oc2cc(O)ccc21)C(=O)N[C@@H](CCCNC(=N)N)C(=O)NCC(=O)N[C@@H](Cc1c[nH]c2ccccc12)C(=O)O [Compound I-26] ({FITC-PEG6}-[dE](X7)[PEG2]RRGW-OH)
[3]
  DAR: −0.10

## N=C(N)NCCC[C@H](NC(=O)CCOCCOCCOCCOCCOCCOCCOCCOCCNC(=O)[C@H](CCC(=O)Oc1ccc(F)cc1)NC(=O)CCOCCOCCOCCOCCOCCOCCNC(=S)Nc1ccc2c(c1)C(=O)OC21c2ccc(O)cc2Oc2cc(O)ccc21)C(=O)N[C@@H](CCCNC(=N)N)C(=O)NCC(=O)N[C@@H](Cc1c[nH]c2ccccc12)C(=O)O [Compound I-27] ({FITC-PEG6}-E(X7)[PEG8]RRGW-OH)
[3]
  DAR: −0.02

## CC(=O)N[C@@H](CC(=O)O)C(=O)N[C@H]1CSSC[C@@H](C(=O)N[C@H](C(=O)O)[C@@H](C)O)NC(=O)[C@H](Cc2c[nH]c3ccccc23)NC(=O)[C@H](C(C)C)NC(=O)[C@H](CC(C)C)NC(=O)[C@H](CCC(=O)O)NC(=O)CNC(=O)[C@H](CC(C)C)NC(=O)[C@H](CCNC(=O)c2ccc(OC(=O)CCOCCOCCOCCOCCOCCOCCNC(=S)Nc3ccc4c(c3)C(=O)OC43c4ccc(O)cc4Oc4cc(O)ccc43)cc2)NC(=O)[C@H](Cc2c[nH]c3ccccc23)NC(=O)[C@H](C)NC1=O [Compound I-42]
[2]
  DAR: 0.13
